Measured values: patent publication US20250042879A1, “HETEROCYCLIC SUBSTITUTED 1,3,4-THIADIAZOLE AND PYRIDAZINE COMPOUNDS AND METHODS OF USING THE SAME” (Rgenta Therapeutics, Inc., priority 2021, published 2025)

System: HTT
Test: Mini-gene reporter assay-HTT (firefly luciferase, exon inclusion)
Type: cell-based
Conditions: HTT Minigene, 5 μM; read-out: % Efficacy at 5 μM
Summary of the method: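 HEK293 cells transiently transfected with a pcDNA3.1 mini-gene carrying the alternatively skipped exon with flanking introns and exons fused to firefly luciferase were incubated with compound, in duplicate. Exon inclusion raises luciferase luminescence. EC50 came from Levenberg-Marquardt curve fitting.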

COc1cc(-c2ccc(-c3ccc(C4CN(C(C)C5CCOCC5)C4)nn3)c(O)c2)cc2cn(C)nc12 (stereo not shown) [Compound 156] and COc1cc(-c2ccc(-c3ccc(C4CN(C(C)C5CCC5)C4)nn3)c(O)c2)cc2cn(C)nc12 (stereo not shown) [Compound 157] cannot be ordered by Emax at 5 µM: over 750% for the first, over 750% for the second.

COc1cc(-c2ccc(-c3ccc(C4CN(C(C)CC5CCOC5)C4)nn3)c(O)c2)cc2cn(C)nc12 (stereo not shown) [Compound 158] and COc1cc(-c2ccc(-c3ccc(C4CN(CCC5CCOCC5)C4)nn3)c(O)c2)cc2cn(C)nc12 [Compound 168] cannot be ordered by Emax at 5 µM: over 750% for the first, over 750% for the second.

COc1cc(-c2ccc(-c3ccc(C4CN(Cc5ccc(O)nc5)C4)nn3)c(O)c2)cc2cn(C)nc12 [Compound 159] and COc1cc(-c2ccc(-c3ccc(C4CN(Cc5ccc(CO)cc5)C4)nn3)c(O)c2)cc2cn(C)nc12 [Compound 181] fall in the same range of Emax at 5 µM: 25 to 75% for the first, 25 to 75% for the second.

COc1cc(-c2ccc(-c3ccc(C4CN(C5CC(OC)C5)C4)nn3)c(O)c2)cc2cn(C)nc12 (stereo not shown) [Compound 160] and CCOC1CC(N2CC(c3ccc(-c4ccc(-c5cc(OC)c6nn(C)cc6c5)cc4O)nn3)C2)C1 (stereo not shown) [Compound 163] fall in the same range of Emax at 5 µM: 25 to 75% for the first, 25 to 75% for the second.

COc1cc(-c2ccc(-c3ccc(C4CN(Cc5cc(C6CC6)[nH]n5)C4)nn3)c(O)c2)cc2cn(C)nc12 [Compound 161] and COc1cc(-c2ccc(-c3ccc(C4CN(Cc5cc6n(n5)CCC6)C4)nn3)c(O)c2)cc2cn(C)nc12 [Compound 184] fall in the same range of Emax at 5 µM: 25 to 75% for the first, 25 to 75% for the second.

Compared with COc1cc(-c2ccc(-c3ccc(C4CN(Cc5cnc(C)o5)C4)nn3)c(O)c2)cc2cn(C)nc12 [Compound 162], COc1cc(-c2ccc(-c3ccc(C4CN(Cc5ocnc5C)C4)nn3)c(O)c2)cc2cn(C)nc12 [Compound 170] is lower in Emax at 5 µM: 25 to 75% for the first, under 25% for the second.

Compared with COc1cc(-c2ccc(-c3ccc(C4CN(C5CCC(C#N)CC5)C4)nn3)c(O)c2)cc2cn(C)nc12 (stereo not shown) [Compound 164], COCC1CCC(N2CC(c3ccc(-c4ccc(-c5cc(OC)c6nn(C)cc6c5)cc4O)nn3)C2)CC1 (stereo not shown) [Compound 179] is lower in Emax at 5 µM: over 750% for the first, 25 to 75% for the second.

First: COc1cc(-c2ccc(-c3ccc(C4CN(CC5CCSCC5)C4)nn3)c(O)c2)cc2cn(C)nc12 [Compound 167]
Second: COc1cc(-c2ccc(-c3ccc(C4CN(C5CCCSCC5)C4)nn3)c(O)c2)cc2cn(C)nc12 (stereo not shown) [Compound 183]
The Emax at 5 µM of the first is lower: 25 to 75% for the first, over 750% for the second.

Compared with COc1cc(-c2ccc(-c3ccc(C4CN(CC(C)CCC#N)C4)nn3)c(O)c2)cc2cn(C)nc12 (stereo not shown) [Compound 169], CCCC(CN1CC(c2ccc(-c3ccc(-c4cc(OC)c5nn(C)cc5c4)cc3O)nn2)C1)OC (stereo not shown) [Compound 176] is lower in Emax at 5 µM: over 750% for the first, 25 to 75% for the second.

COc1cc(-c2ccc(-c3ccc(C4CN(C5CC6(CCOCC6)C5)C4)nn3)c(O)c2)cc2cn(C)nc12 [Compound 171] and COc1cc(-c2ccc(-c3ccc(C4CN(C5CCOC6(CCC6)C5)C4)nn3)c(O)c2)cc2cn(C)nc12 (stereo not shown) [Compound 172] fall in the same range of Emax at 5 µM: 25 to 75% for the first, 25 to 75% for the second.

COc1cc(-c2ccc(-c3ccc(C4CN(C(C)Cc5cnccn5)C4)nn3)c(O)c2)cc2cn(C)nc12 (stereo not shown) [Compound 173] and COc1cc(-c2ccc(-c3ccc(C4CN(Cc5cnsc5)C4)nn3)c(O)c2)cc2cn(C)nc12 [Compound 182] fall in the same range of Emax at 5 µM: 25 to 75% for the first, 25 to 75% for the second.

First: COc1cc(-c2ccc(-c3ccc(C4CN(CC5(SC)CC5)C4)nn3)c(O)c2)cc2cn(C)nc12 [Compound 174]
Second: CCC(C)(CN1CC(c2ccc(-c3ccc(-c4cc(OC)c5nn(C)cc5c4)cc3O)nn2)C1)OC (stereo not shown) [Compound 178]
The Emax at 5 µM of the first is higher: 25 to 75% for the first, under 25% for the second.

CCc1ncc(CN2CC(c3ccc(-c4ccc(-c5cc(OC)c6nn(C)cc6c5)cc4O)nn3)C2)cn1 [Compound 175] and COc1cc(-c2ccc(-c3ccc(C4CN(Cc5ccc(C)nn5)C4)nn3)c(O)c2)cc2cn(C)nc12 [Compound 180] fall in the same range of Emax at 5 µM: 25 to 75% for the first, 25 to 75% for the second.

COc1cc(-c2ccc(-c3ccc(C4CN(C5CC(C)OC5C)C4)nn3)c(O)c2)cc2cn(C)nc12 (stereo not shown) [Compound 177] and COc1cc(-c2ccc(-c3ccc(C4CN(CC5CC6CC6C5)C4)nn3)c(O)c2)cc2cn(C)nc12 (stereo not shown) [Compound 185] fall in the same range of Emax at 5 µM: 25 to 75% for the first, 25 to 75% for the second.
